Among the data in patent publication US12606541B2, “PPARg modulators and methods of use” (Eisai R&D Management Co., Ltd., priority 2020, dated 2026) are AC50 and IC50 values, retold here.

For assay [1], the target named is T1, His6-TEV-PPARγ-(234-505) (Homo sapiens, UniProt P37231).
T1 construct: The His6-TEV-PPARγ-(234-505) protein for assay was expressed and purified; TEV cleavage site (N); made in house
T1 sequence (P37231 234-505): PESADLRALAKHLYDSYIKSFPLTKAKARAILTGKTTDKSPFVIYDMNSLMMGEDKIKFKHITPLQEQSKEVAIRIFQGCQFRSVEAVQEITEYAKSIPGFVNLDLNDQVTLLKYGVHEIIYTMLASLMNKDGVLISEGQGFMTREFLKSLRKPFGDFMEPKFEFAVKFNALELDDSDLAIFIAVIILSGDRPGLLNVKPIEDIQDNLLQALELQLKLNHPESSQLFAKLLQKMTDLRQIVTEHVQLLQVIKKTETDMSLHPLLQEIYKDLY
Briefly: TR-FRET Assay to Measure Co-R Peptide Recruitment to PPARγ. The assay is classed as biochemical. The following applies: Co-R peptide (SMRT-ID2) recruitment; top final concentration 20 μM; read-out: TR-FRET i-Ag; AC50. The method in brief: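 His-tagged PPARγ (or controls) was preincubated with compound for 20 minutes at room temperature, then 5 nM anti-His terbium antibody and 200 nM FITC-labeled SMRT-ID2 corepressor peptide (final) were added for a further hour. TR-FRET signal was normalized to percent response using 500 nM T0070907 and DMSO controls.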

The subject of assay [2] is UM-UC-9 engineered cells. Briefly: Cell proliferation / short-term viability assay, CellTiter-Glo 144 h. The assay is classed as cell-based, human. Particulars: read-out: CTGlo 144 h UMUC9.5, G150. In a few lines: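 UM-UC-9 engineered assay-ready cells seeded at 500 cells/well in high-glucose DMEM/10% FBS, treated from dose-response plates, grown at 37° C, 5% CO2. CellTiter-Glo 2.0 luminescence read on day 7, with a day-0 pretreatment plate as T0 reference and DMSO wells as negative control.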

SMILES strings stand for the structures. Where two headings read alike, the source gives them in different places. Bounds are passed on as bounds.

For `COc1cc(-c2cc(C(=O)N3CC[C@H](C(=O)NC45CC(CO)(C4)OC5C)CC34CC4)n[nH]2)c(F)cn1` (single isomer, unassigned) [Example 518-A], in assay [1], the AC50 was determined as 130 nM. Besides, the IC50 in assay [2] amounted to 3130 nM.

Regarding `COc1cc(-c2cc(C(=O)N3[C@@H]4CC[C@H]3C[C@@H](C(=O)NCc3cccc(Cl)c3)C4)n[nH]2)c(F)cn1` [Example 160-B, (1R,3r,5S)—N-(3-chlorobenzyl)-8-(5-(5-fluoro-2-methoxypyridin-4-yl)-1H-pyrazole-3-carbonyl)-8-azabicyclo[3.2.1]octane-3-carboxamide], in assay [1], the AC50 came out at 14200 nM. Besides, the IC50 in assay [2] (Homo sapiens, UM-UC-9, 144 h) was above 10000 nM.

Take `COc1cc(-c2cc(C(=O)N3CC[C@H](C(=O)NC4CCC(O)(C(F)(F)F)C(O)C4)CC34CC4)n[nH]2)c(F)cn1` (single isomer, unassigned) [Example 474-C]: the AC50 in assay [1] came out at 5.4 nM. The IC50 in assay [2] (Homo sapiens, UM-UC-9, 144 h) worked out at 23.6 nM.

As to `COc1cc(-c2cc(C(=O)N3CC[C@H](C(=O)NC4CCC5(CCCN5)CC4)CC34CC4)n[nH]2)c(F)cn1` (stereo partly drawn) [Example 348, (S)-4-(5-(5-fluoro-2-methoxypyridin-4-yl)-1H-pyrazole-3-carbonyl)-N-(1-azaspiro[4.5]decan-8-yl)-4-azaspiro[2.5]octane-7-carboxamide], the AC50 in assay [1] came to 305 nM. Besides, the IC50 in assay [2] (Homo sapiens, UM-UC-9, 144 h) is above 10000 nM.

On to `COc1cc(-c2cc(C(=O)N3CC[C@H](C(=O)NC4CCC5CCCN5C4)CC34CC4)n[nH]2)c(F)cn1` (single isomer, unassigned) [Example 376-A], for which, in assay [1], the AC50 was 897 nM. The IC50 in assay [2] stood at 1730 nM.

`COc1cc(-c2cc(C(=O)N3C4CCC3CC(C(=O)NC3CCC(C(F)(F)F)N(C)C3)C4)n[nH]2)c(F)cn1` (mixture of isomers) [Example 306-A]: the AC50 in assay [1] stood at 13.9 nM. Also, the IC50 in assay [2] (Homo sapiens, UM-UC-9, 144 h) stood at 78.8 nM.

As to `COc1cc(-c2cc(C(=O)N3CC[C@H](C(=O)NCc4ncccc4Cl)CC34CC4)n[nH]2)c(F)cn1` [Example 358, (S)—N-((3-chloropyridin-2-yl)methyl)-4-(5-(5-fluoro-2-methoxypyridin-4-yl)-1H-pyrazole-3-carbonyl)-4-azaspiro[2.5]octane-7-carboxamide], the AC50 in assay [1] amounted to 5.1 nM. Further, the IC50 in assay [2] (Homo sapiens, UM-UC-9, 144 h) came out at 3.4 nM.

For `COc1cc(-c2cc(C(=O)N3CCC(C(=O)NC4CCN(CCF)C(C)(C)C4)CC34CC4)n[nH]2)c(F)cn1` (mixture of isomers) [Example 425, (S)-4-(5-(5-fluoro-2-methoxypyridin-4-yl)-1H-pyrazole-3-carbonyl)-N—((S)-1-(2-fluoroethyl)-2,2-dimethylpiperidin-4-yl)-4-azaspiro[2.5]octane-7-carboxamide and (S)-4-(5-(5-fluoro-2-methoxypyridin-4-yl)-1H-pyrazole-3-carbonyl)-N—((R)-1-(2-fluoroethyl)-2,2-dimethylpiperidin-4-yl)-4-azaspiro[2.5]octane-7-carboxamide], the AC50 in assay [1] worked out at 901 nM. Moreover, in assay [2], the IC50 was above 10000 nM.

On to `COc1cc(-c2cc(C(=O)N3CCC(C(=O)NCc4cc(C)n(C)n4)CC3)n[nH]2)c(Cl)cn1` [Example 141, 1-(5-(5-chloro-2-methoxypyridin-4-yl)-1H-pyrazole-3-carbonyl)-N-((1,5-dimethyl-1H-pyrazol-3-yl)methyl)piperidine-4-carboxamide], for which the AC50 in assay [1] is 679 nM. For the same compound, the IC50 in assay [2] (Homo sapiens, UM-UC-9, 144 h) was 2600 nM.

As to `COc1cc(-c2cc(C(=O)N3CCC(C(=O)NC4CCOc5ccccc54)CC3)n[nH]2)c(Cl)cn1` (centres unmarked) [Example 184, 1-(5-(5-chloro-2-methoxypyridin-4-yl)-1H-pyrazole-3-carbonyl)-N (chroman-4-yl)piperidine-4-carboxamide], in assay [1], the AC50 was determined as 215 nM. Besides, the IC50 in assay [2] (Homo sapiens, UM-UC-9, 144 h) amounted to 384 nM.
